# Where two headings read alike, the source gives them in different places.
# Tests used:
# [1] = test system: SARS-CoV-2 SL1 RNA (SL1 wt); format: binding; details: for wLOGSY factor / T2 reduction [%] / CSP [Hz]: 10 μM SL1 wt, 200 μM ligand; for wLOGSY factor / T2 reduction [%]: pH 6.2; for T2 reduction [%]: CPMG 100 vs 5 ms; for Rank: FBS ranking from summed ranks of CSP, wLOGSY and T2 results; for CSP [Hz]: ligand 1H CSP, [RNA]:[ligand] 1:20, pH 6.2; for FBS binding to SL1, in words: ligand-detected NMR
# [2] = test system: SL1 (wt)-Nanoluciferase mRNA; format: biochemical, SARS-CoV-2
# [3] = test system: β-Globin-Nanoluciferase mRNA; assay: Cell-free translation assay in rabbit reticulocyte lysate, Nanoluciferase readout; format: biochemical; details: 0.2 μM mRNA, 2 μM compound
# [4] = test system: SL1 Δbulge-Nanoluciferase mRNA; format: biochemical, SARS-CoV-2
# [5] = test system: SL1 Δbulge RNA; format: binding, SARS-CoV-2
# [6] = test system: SL1 RNA; assay: RNA-detected NMR binding site mapping (2D-1H,1H-TOCSY and 1D-1H); parameters: species or system SARS-CoV-2; details: for 1H,1H CSPs [ppm] C16H5-H6 / 1H,1H CSPs [ppm] C19H5-H6 / 1H,1H CSPs [ppm] C20H5-H6 / 1H,1H CSPs [ppm] C21H5-H6 / 1H,1H CSPs [ppm] C28H5-H6 / 1H,1H CSPs [ppm] C33H5-H6 / 1H,1H CSPs [ppm] C34H5-H6 / 1H,1H CSPs [ppm] U9H5-H6 / 1H,1H CSPs [ppm] U10H5-H6 / 1H,1H CSPs [ppm] U11H5-H6 / 1H,1H CSPs [ppm] U13H5-H6 / 1H,1H CSPs [ppm] U17H5-H6 / 1H,1H CSPs [ppm] U18H5-H6 / 1H,1H CSPs [ppm] U25H5-H6 / 1H,1H CSPs [ppm] C15H5-H6 / 1H,1H CSPs [ppm] C32H5-H6: 2D TOCSY, RNA 150 μM, compound 1 mM, 298 K; for 1H CSPs [ppm] A12H2 / 1H CSPs [ppm] A29H2: RNA-detected 1D-1H
# [7] = biological target: SL1 wt RNA; assay: NMR-based KD estimation, ligand-detected 1D-1H titration; format: binding, SARS-CoV-2
# [8] = pH 6.2
# [9] = ligand 100 μM, SL1 RNA 0 to 200 or 250 μM, 298 K, 600 MHz, pH 6.2, read-out: KD est
# [10] = Suppl. Table 7, ligand constant at 100, SL1 wt RNA concentration 0-200, read-out: KDest
Compound,wLOGSY factor [1],T2 reduction [%] [1] [%],Rank ([1]; SL1 wt),CSP [Hz] [1] [Hz],"effect on translation of SL1 wt mRNA, in words [2]","1H,1H CSPs [ppm] C16H5-H6 [6] [ppm]","1H,1H CSPs [ppm] C19H5-H6 [6] [ppm]","1H,1H CSPs [ppm] C20H5-H6 [6] [ppm]","1H,1H CSPs [ppm] C21H5-H6 [6] [ppm]","1H,1H CSPs [ppm] C28H5-H6 [6] [ppm]","1H,1H CSPs [ppm] C33H5-H6 [6] [ppm]","1H,1H CSPs [ppm] C34H5-H6 [6] [ppm]","1H,1H CSPs [ppm] U9H5-H6 [6] [ppm]","1H,1H CSPs [ppm] U10H5-H6 [6] [ppm]","1H,1H CSPs [ppm] U11H5-H6 [6] [ppm]","1H,1H CSPs [ppm] U13H5-H6 [6] [ppm]","1H,1H CSPs [ppm] U17H5-H6 [6] [ppm]","1H,1H CSPs [ppm] U18H5-H6 [6] [ppm]","FBS result (CSP, wLOGSY, T2 reduction) in words [5]","Kd [7, 10] [µM]",further results
CNC(=N)Nc1nc2ccc(OC)cc2s1 [A.4],1.21,77.83,20,16.14,inhibitory effect,0.0103,0.0293,0.0526,0.0441,0.1355,0.0050,0.0072,0.0130,0.0146,0.0030,0.0999,0.0288,0.0191,,,"FBS binding to SL1, in words ([1]; SL1 wt): strongest FBS effects; effect on translation of β-globin mRNA, in words [3]: boost; effect on translation of SL1 Δbulge mRNA, in words [4]: inhibitory effect; CSP [Hz] [5]: 8.19 Hz; Rank [5]: 1; T2 reduction [%] [5]: 90.18%; wLOGSY factor [5]: 0.69; binding site / selectivity for the bulge from CSP and LB mapping, in words [6]: bound the bulge less selectively; 1H,1H CSPs [ppm] U25H5-H6 [6]: 0.0099 ppm; 1H CSPs [ppm] A12H2 [6]: 0.1560 ppm; 1H CSPs [ppm] A29H2 [6]: 0.0670 ppm; Kd ([7]; Suppl. Table 7, ligand constant at 100, SL1 wt RNA concentration 0-250, read-out: KDest): 102 µM; Kd [7, 9]: 102 ± 8 µM"
CNC(=O)Nc1nc2c(OC)cc(OC)cc2s1 [A.11],1.51,93.00,19,4.50,no inhibition,0.0020,0.0036,0.0045,0.0061,0.0130,0.0010,0.0025,0.0040,0.0072,0.0311,0.0216,0.0010,0.0043,no effects,,"1H,1H CSPs [ppm] C15H5-H6 [6]: 0.0010 ppm; 1H,1H CSPs [ppm] C32H5-H6 [6]: 0.0063 ppm; 1H,1H CSPs [ppm] U25H5-H6 [6]: 0.0045 ppm; 1H CSPs [ppm] A12H2 [6]: 0.0400 ppm; 1H CSPs [ppm] A29H2 [6]: 0.0040 ppm"
CN(C)CC(=O)Nc1nc2ccc([N+](=O)[O-])cc2s1 [A.14],0.46,100.00,9,22.20,,,,,,,,,,,,,,,no effects,,"CSP values relative to A.2 ([1]; ligand CSP, SL1 wt): 2–3 times; solubility, in words [8]: poor solubility"
COc1ccc(-c2nnc(NC(=O)CN(C)C)s2)cc1OC [A.31],1.71,100.00,1,24.42,nonspecific effects,0.0073,0.0042,0.0021,0.0010,0.0228,0.0067,0.0204,0.0104,0.0112,0.0256,0.0206,0.0067,0.0021,no effects,146,"binding site / selectivity for the bulge from CSP and LB mapping, in words [6]: weaker binding characteristics; 1H,1H CSPs [ppm] C15H5-H6 [6]: 0.0032 ppm; 1H,1H CSPs [ppm] C32H5-H6 [6]: 0.0130 ppm; 1H,1H CSPs [ppm] U25H5-H6 [6]: 0.0122 ppm; 1H CSPs [ppm] A12H2 [6]: 0.0630 ppm; 1H CSPs [ppm] A29H2 [6]: 0.0000 ppm; Kd [7, 9]: 146 ± 13 µM"
COc1ccc2nc(NC(=O)CN3CCC[C@H](N)C3)sc2c1 [A.36],0.82,100.00,2,30.18,nonspecific effects,0.0076,0.0036,0.0029,0.0010,0.0359,0.0057,0.0079,0.0100,0.0089,0.0063,0.0308,0.0045,0.0039,no effects,218,"FBS binding to SL1, in words ([1]; SL1 wt): positive effect on SL1 binding; effect on translation of β-globin mRNA, in words [3]: increased translation efficiency; effect on translation of SL1 Δbulge mRNA, in words [4]: increased translation efficiency; binding site / selectivity for the bulge from CSP and LB mapping, in words [6]: weaker binding characteristics; 1H,1H CSPs [ppm] C15H5-H6 [6]: 0.0010 ppm; 1H,1H CSPs [ppm] C32H5-H6 [6]: 0.0186 ppm; 1H,1H CSPs [ppm] U25H5-H6 [6]: 0.0120 ppm; 1H CSPs [ppm] A12H2 [6]: 0.0727 ppm; Kd [7, 9]: 218 ± 90 µM"
COc1ccc2nc(NC(=O)CN3CCNCC3)sc2c1 [A.45],1.54,86.71,7,24.81,,,,,,,,,,,,,,,,162,"FBS binding to SL1, in words ([1]; SL1 wt): positive effect on SL1 binding; CSP [Hz] [5]: 7.08 Hz; Rank [5]: 7; T2 reduction [%] [5]: 60.81%; wLOGSY factor [5]: 0.00"
COc1ccc2nc(NC(=O)CN3CCC[C@H](NCCN(C)c4cccc(O)c4)C3)sc2c1 [A.48],0.00,74.30,32,17.28,,,,,,,,,,,,,,,,304,CSP [Hz] [5]: 2.16 Hz; Rank [5]: 9; T2 reduction [%] [5]: 0.59%; wLOGSY factor [5]: 10.82
CCN(CCN[C@H]1CCCN(CC(=O)Nc2nc3ccc(OC)cc3s2)C1)c1cccc(O)c1 [A.49],0.00,72.85,34,15.15,,,,,,,,,,,,,,,no effects,530,

# Reference: paper PMC12356538, “Targeting the SARS-CoV‑2 RNA Translation Initiation Element SL1 by Molecules of Low Molecular Weight” (Journal of the American Chemical Society, 2025)
